Reference: US10138225B2 (Achillion Pharmaceuticals, Inc., priority 2015, dated 2018)

Target: T1, Human Factor D (Homo sapiens, UniProt P00746)
T1 construct: purified from human serum; purchased Complement Technology, Inc; host or cells: human serum (natural protein, not recombinant)
Test: Human Factor D Assay
Format: biochemical
Conditions: Table 1; Factor D 80 nM, substrate Z-L-Lys-SBzl; read-out: IC50
Procedure: Human Factor D (purified from human serum, Complement Technology, Inc.) at 80 nM final concentration is incubated with test compound at various concentrations for 5 minutes at room temperature in 50 mM Tris, 1M NaCl, pH 7.5. A synthetic substrate Z-L-Lys-SBzl and DTNB (Ellman's reagent) are added to final concentrations of 100 μM each. Absorbance at 405 nm (A405) is recorded at 30 second intervals for 30 minutes using a microplate spectrophotometer. IC50 values are calculated by nonlinear regression of complement Factor D reaction rates as a function of test compound concentration.

T1 sequence (P00746 26-253): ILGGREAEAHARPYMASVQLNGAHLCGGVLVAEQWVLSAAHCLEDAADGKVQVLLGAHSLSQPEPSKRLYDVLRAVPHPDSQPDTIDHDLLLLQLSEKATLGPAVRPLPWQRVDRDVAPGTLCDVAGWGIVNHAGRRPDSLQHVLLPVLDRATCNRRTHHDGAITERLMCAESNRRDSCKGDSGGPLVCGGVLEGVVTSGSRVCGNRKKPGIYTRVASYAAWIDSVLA

Structure (SMILES)	IC50 [µM]
CC(=O)c1cn(CC(=O)N2C[C@H](F)C[C@H]2C(=O)NCc2cccc(Cl)c2F)c2cc(NC(=O)OC(C)(C)C)ccc12 [Compound 37, tert-butyl 3-acetyl-1-(2-((2S,4R)-2-(3-chloro-2-fluorobenzylcarbamoyl)-4-fluoropyrrolidin-1-yl)-2-oxoethyl)-1H-indol-6-ylcarbamate]	< 1
CC(=O)c1cn(CC(=O)N2C[C@H](F)C[C@H]2C(=O)NCc2cccc(Cl)c2F)c2cc(C(=O)NCC3CCN(C(=O)OC(C)(C)C)C3)ccc12 (stereo partly drawn) [Compound 50, tert-butyl 3-((3-acetyl-1-(2-((2S,4R)-2-(3-chloro-2-fluorobenzylcarbamoyl)-4-fluoropyrrolidin-1-yl)-2-oxoethyl)-1H-indole-6-carboxamido)methyl) pyrrolidine-1-carboxylate]	< 1
CC(=O)c1cn(CC(=O)N2[C@@H]3C[C@@H]3C[C@H]2C(=O)N[C@H](C)c2cccc(Cl)c2F)c2ccc(NC(=O)NC3CC3)cc12 [Compound 5, (1R,3S,5R)-2-(2-(3-acetyl-5-(3-cyclopropylureido)-1H-indol-1-yl)acetyl)-N-((R)-1-(3-chloro-2-fluorophenyl)ethyl)-2-azabicyclo[3.1.0] hexane-3-carboxamide]	< 1
NC(=O)c1nn(CC(=O)N2[C@@H]3C[C@@H]3C[C@H]2C(=O)Nc2cccc(-c3ccccc3Cl)c2F)c2ccc(NC(=O)N3CCCC(F)(F)C3)cc12 [Compound 28, 1-(2-((1R,3S,5R)-3-(2′-chloro-2-fluorobiphenyl-3-ylcarbamoyl)-2-azabicyclo[3.1.0]hexan-2-yl)-2-oxoethyl)-5-(3,3-difluoropiperidine-1-carboxamido)-1H-indazole-3-carboxamide]	< 1
CC(=O)c1cn(CC(=O)N2C[C@H](F)C[C@H]2C(=O)NCc2cccc(Cl)c2F)c2ccc(C(=O)N3CC4CCC3C4)cc12 (stereo partly drawn) [Compound 39, (2S,4R)-1-(2-(3-acetyl-5-(2-azabicyclo[2.2.1]heptane-2-carbonyl)-1H-indol-1-yl)acetyl)-N-(3-chloro-2-fluorobenzyl)-4-fluoropyrrolidine-2-carboxamide]	< 1
CC(=O)c1cn(CC(=O)N2C[C@H](F)C[C@H]2C(=O)NCc2cccc(Cl)c2F)c2cc(C(=O)NCC3CCNC3)ccc12 (stereo partly drawn) [Compound 49, 3-acetyl-1-(2-((2S,4R)-2-(3-chloro-2-fluorobenzylcarbamoyl)-4-fluoropyrrolildin-1-yl)-2-oxoethyl)-N-(pyrrolidin-3-ylmethyl)-1H-indole-6-carboxamide]	< 1
CC(=O)c1cn(CC(=O)N2C[C@H](F)C[C@H]2C(=O)Nc2cccc(OC(F)(F)F)c2F)c2ccc(NC(=O)N3CCCC(F)(F)C3)cc12 [Compound 17, N-(3-acetyl-1-(2-((2S,4R)-4-fluoro-2-(2-fluoro-3-(trifluoromethoxy)phenylcarbamoyl)pyrrolidin-1-yl)-2-oxoethyl)-1H-indol-5-yl)-3,3-difluoropiperidine-1-carboxamide]	< 1
CC(=O)c1cn(CC(=O)N2C[C@H](F)C[C@H]2C(=O)NCc2cccc(Cl)c2F)c2ccc(NC(=O)NC3(C)CC3)cc12 [Compound 4, (2S,4R)-1-(2-(3-acetyl-5-(3-(1-methylcyclopropyl)ureido)-1H-indol-1-yl)acetyl)-N-(3-chloro-2-fluorobenzyl)-4-fluoropyrrolidine-2-carboxamide]	< 1
CC(=O)c1cn(CC(=O)N2C[C@H](F)C[C@H]2C(=O)NCc2cccc(Cl)c2F)c2ccc(NC(=O)NCc3ncccn3)cc12 [Compound 8, (2S,4R)-1-(2-(3-acetyl-5-(3-(pyrimidin-2-ylmethyl)ureido)-1H-indol-1-yl)acetyl)-N-(3-chloro-2-fluorobenzyl)-4-fluoropyrrolidine-2-carboxamide]	< 1
CC(=O)c1cn(CC(=O)N2C[C@H](F)C[C@H]2C(=O)NCc2cccc(Cl)c2F)c2ccc(C(=O)NC3CC3)cc12 [Compound 41, 3-acetyl-1-(2-((2S,4R)-2-(3-chloro-2-fluorobenzylcarbamoyl)-4-fluoropyrrolidin-1-yl)-2-oxoethyl)-N-cyclopropyl-1H-indole-5-carboxamide]	< 1
CC(=O)c1cn(CC(=O)N2C[C@H](F)C[C@H]2C(=O)NCc2cccc(Cl)c2F)c2ccc(NC(=O)OC3CC3)cc12 [Compound 14, cyclopropyl 3-acetyl-1-(2-((2S,4R)-2-(3-chloro-2-fluorobenzylcarbamoyl)-4-fluoropyrrolidin-1-yl)-2-oxoethyl)-1H-indol-5-ylcarbamate]	< 1
NC(=O)c1nn(CC(=O)N2[C@@H]3C[C@@H]3C[C@H]2C(=O)Nc2cccc(OC(F)(F)F)c2F)c2ccc(NC(=O)N3CCCC(F)(F)C3)cc12 [Compound 27, 5-(3,3-difluoropiperidine-1-carboxamido)-1-(2-((1R,3S,5R)-3-(2-fluoro-3-(trifluoromethoxy)phenylcarbamoyl)-2-azabicylco[3.1.0]hexan-2-yl)-2-oxoethyl)-1H-indazole-3-carboxamide]	< 1
NC(=O)c1nn(CC(=O)N2C[C@H](F)C[C@H]2C(=O)Nc2cccc(-c3ccccc3Cl)c2F)c2ccc(NC(=O)NCc3ncccn3)cc12 [Compound 32, 1-(2-((2S,4R)-2-(2′-chloro-2-fluorobiphenyl-3-ylcarbamoyl)-4-fluoropyrrolidin-1-yl)-2-oxoethyl)-5-(3-(pyrimidin-2-ylmethyl)ureido)-1H-indazole-3-carboxamide]	< 1
CC(=O)c1cn(CC(=O)N2C[C@H](F)C[C@H]2C(=O)Nc2cccc(-c3ccccc3Cl)c2F)c2ccc(NC(=O)CC(F)(F)F)cc12 [Compound 36, (2S,4R)-1-(2-(3-acetyl-5-(3,3,3-trifluoropropanamido)-1H-indol-1-yl)acetyl)-N-(2′-chloro-2-fluorobiphenyl-3-yl)-4-fluoropyrrolidine-2-carboxamide]	< 1

Same assay, conditions: Table 2; Factor D 80 nM, substrate Z-L-Lys-SBzl; read-out: IC50

IC50 [µM]	Structure (SMILES)
< 1	NC(=O)c1nn(CC(=O)N2C[C@H](F)C[C@H]2C(=O)Nc2cccc(-c3ccccc3Cl)c2F)c2cc(C(=O)N3CCOCC3)sc12 [Compound 59, 1-(2-((2S,4R)-2-(2′-chloro-2-fluorobiphenyl-3-ylcarbamoyl)-4-fluoropyrrolidin-1-yl)-2-oxoethyl)-5-(morpholine-4-carbonyl)-1H-thieno[3,2-c]pyrazole-3-carboxamide]
< 1	CC(C)(C)C(=O)Nc1nc2c(s1)c(C(N)=O)nn2CC(=O)N1C[C@H](F)C[C@H]1C(=O)NCc1cccc(Cl)c1F [Compound 56, 1-(2-((2S,4R)-2-(3-chloro-2-fluorobenzylcarbamoyl)-4-fluoropyrrolidin-1-yl)-2-oxoethyl)-5-pivalamido-1H-pyrazolo[3,4-d]thiazole-3-carboxamide]
< 1	CN(C)C(=O)c1cc2c(s1)c(C(N)=O)nn2CC(=O)N1C[C@H](F)C[C@H]1C(=O)Nc1cccc(-c2ccccc2Cl)c1F [Compound 62, 1-(2-((2S,4R)-2-(2′-chloro-2-fluorobiphenyl-3-ylcarbamoyl)-4-fluoropyrrolidin-1-yl)-2-oxoethyl)-N5,N5-dimethyl-1H-thieno[3,2-c]pyrazole-3,5-dicarboxamide]
< 1	NC(=O)c1nn(CC(=O)N2C[C@H](F)C[C@H]2C(=O)Nc2cccc(-c3ccccc3Cl)c2F)c2cc(C(=O)NC3CCCC3)sc12 [Compound 61, 1-(2-((2S,4R)-2-(2′-chloro-2-fluorobiphenyl-3-ylcarbamoyl)-4-fluoropyrrolidin-1-yl)-2-oxoethyl)-N5-cyclopentyl-1H-thieno[3,2-c]pyrazole-3,5-dicarboxamide]
< 1	NC(=O)c1nn(CC(=O)N2C[C@H](F)C[C@H]2C(=O)Nc2cccc(-c3ccccc3Cl)c2F)c2cc(C(=O)NC3CC3)sc12 [Compound 57, 1-(2-((2S,4R)-2-(2′-chloro-2-fluorobiphenyl-3-ylcarbamoyl)-4-fluoropyrrolidin-1-yl)-2-oxoethyl)-N5-cyclopropyl-1H-thieno[3,2-c]pyrazole-3,5-dicarboxamide]
< 1	NC(=O)c1nn(CC(=O)N2C[C@H](F)C[C@H]2C(=O)Nc2cccc(-c3ccccc3Cl)c2F)c2cc(C(=O)N3CCCC3)sc12 [Compound 60, 1-(2-((2S,4R)-2-(2′-chloro-2-fluorobiphenyl-3-ylcarbamoyl)-4-fluoropyrrolidin-1-yl)-2-oxoethyl)-5-(pyrrolidine-1-carbonyl)-1H-thieno[3,2-c]pyrazole-3-carboxamide]

Same assay, conditions: Table 3; factor D inhibition assay; read-out: IC50 (Stars)

IC50 [µM]	Structure (SMILES)
< 1	CC(=O)c1nn(CC(=O)N2C[C@H](F)C[C@H]2C(=O)Nc2cccc(Br)n2)c2cc(C(=O)NS(=O)(=O)C3CC3)ccc12 [Compound 233, 3-acetyl-1-(2-((2S,4R)-2-((6-bromopyridin-2-yl)-carbamoyl)-4-fluoro-pyrrolidin-1-yl)-2-oxoethyl)-N-(cyclopropylsulfonyl)-1H-indazole-6-carboxamide]
< 1	CC(=O)c1cn(CC(=O)N2C[C@H](F)C[C@H]2C(=O)NCCCCc2ccccc2)c2ccc(NC(=O)N3CCCC(F)(F)C3)cc12 [Compound 199, N-(3-acetyl-1-(2-((2S,4R)-4-fluoro-2-((4-phenylbutyl)carbamoyl)pyrrolidin-1-yl)-2-oxoethyl)-1H-indol-5-yl)-3,3-difluoropiperidine-1-carboxamide]
> 10	Cc1cccc(NC(=O)[C@@H]2[C@H]3CC[C@H](C3)N2C(=O)Cn2cc(C(N)=O)c3cc(C(=O)NS(=O)(=O)C4CC4)ccc32)n1 [Compound 209, N5-(cyclopropylsulfonyl)-1-(2-((1R,4S)-3-((6-methyl-pyridin-2-yl)carbamoyl)-2-aza-bicyclo[2.2.1]heptan-2-yl)-2-oxoethyl)-1H-indole-3,5-dicarboxamide]
